US12396471B2, “Composition containing sesamin and PQQ” (SUNTORY HOLDINGS LIMITED, priority 2019, dated 2025)

System: TIG-3 cells
Assay: Evaluation test of mitochondrial function: amount of ATP production (decrease in oxygen consumption rate by oligomycin) after H2O2 treatment
Format: cell-based
Settings: for Measured value: amount of ATP production (amount of decrease in oxygen consumption rate by the ATP synthase inhibitor): TIG-3 cells cultured 24 h with test substance, then H2O2 800 μM for two hours, XF analyzer, concentrations of SE and PQQ·2Na per example; for Recovery rate (%) from Comparative Example 1: measured value divided by that of Comparative Example 1 (H2O2 800 μM only) x 100
Procedure: To examine mitochondrial function, TIG-3 cells at 5.5×10^3 cells/well were seeded onto cell culture plates, and cultured at 37° C. with CO2 (5%) for 24 hours. After 24 hours of culturing, compositions each containing a sesamin-episesamin mixture and PQQ were added to the media in the wells at the respective concentrations shown in Table 1 below, and cultured for 24 hours. Subsequently, the media containing the sesamin-episesamin mixture and the PQQ were removed, and the cells in the wells were treated with media containing H2O2 (800 μM) for two hours. Subsequently, each medium was replaced with an analysis medium, and the oxygen consumption rate was analyzed using an analyzer (XF analyzer, Agilent Technologies Japan, Ltd.). After completion of analysis, the nuclei were stained with Hoechst, and the cells were photographed by a fluorescence microscope “BZ-x” (Keyence Corporation). The number of cells was counted by image analysis. The amount of ATP production was the amount of decrease in oxygen consumption rate by the ATP synthase inhibitor (oligomycin).
(§1) To examine mitochondrial function, TIG-3 cells at 5.5×10^3 cells/well were seeded onto a dedicated plate, and cultured at 37° C. with CO2 (5%) for 24 hours. The cells were further cultured for 26 hours without adding a sesamin-episesamin mixture and a composition containing PQQ to the medium 24 hours after the first culturing and without treating cells in the well with a medium containing H2O2 (800 μM) for two hours. Then, the oxygen consumption rate in Reference Example 1 was analyzed and the number of cells was counted as in Example 1, except for the differences described above. The amount of ATP production was also measured.
as §1, with “24” for “26”, “culturing.” for “culturing and without treating cells in the well with a medium containing H2O2 (800 μM) for two hours.”, “Comparative” for “Reference”
To examine mitochondrial function, TIG-3 cells at 5.5×10^3 cells/well were seeded onto a dedicated plate, and cultured at 37° C. with CO2 (5%) for 24 hours. After 24 hours of culturing, a sesamin-episesamin mixture or PQQ was added to each medium in the wells at the corresponding concentration shown in Table 1 below, and cultured for 24 hours. Except what is described above, the oxygen consumption rate in each of Comparative Examples 2 to 9 was analyzed, and the number of cells was counted as in Example 1. The amount of ATP production was measured.
In Table 1, values in “Measured value” (pmol/min/10^3 cells) show the amount of ATP production (the amount of decrease in oxygen consumption rate by the ATP synthase inhibitor) determined above.
Values in “Recovery rate (%) from Comparative Example 1” are each obtained by dividing a measured value in one example or comparative example by the measured value of Comparative Example 1 and multiplying the resulting value with 100. A higher recovery rate means a larger amount of ATP production. […] In FIG. 1, “SE” indicates the sesamin-episesamin mixture.

Compound | Measured value: amount of ATP production (amount of decrease in oxygen consumption rate by the ATP synthase inhibitor) | decline in the amount of ATP production compared to the H2O2-treated group according to Comparative Example 1 (TIG-3 cells, H2O2 800 μM) | Recovery rate (%) from Comparative Example 1 (TIG-3 cells) | increase in the amount of ATP production compared to the H2O2-treated group according to Comparative Example 1 (TIG-3 cells, H2O2 800 μM)
O=C([O-])c1cc(C(=O)[O-])c2c(n1)C(=O)C(=O)c1cc(C(=O)O)[nH]c1-2.[Na+].[Na+] [Comparative Example 5, PQQ·2Na] | 6.06 pmol/min/10^3 cells | 5.5% | 94.5% | –
O=C([O-])c1cc(C(=O)[O-])c2c(n1)C(=O)C(=O)c1cc(C(=O)O)[nH]c1-2.[Na+].[Na+] [Comparative Example 6, PQQ·2Na] | 6.49 pmol/min/10^3 cells | – | 101.1% | 1.1%
O=C([O-])c1cc(C(=O)[O-])c2c(n1)C(=O)C(=O)c1cc(C(=O)O)[nH]c1-2.[Na+].[Na+] [Comparative Example 7, PQQ·2Na] | 6.71 pmol/min/10^3 cells | – | 104.6% | 4.6%
O=C([O-])c1cc(C(=O)[O-])c2c(n1)C(=O)C(=O)c1cc(C(=O)O)[nH]c1-2.[Na+].[Na+] [Comparative Example 8, PQQ·2Na] | 7.40 pmol/min/10^3 cells | – | 115.3% | 15.3%
O=C([O-])c1cc(C(=O)[O-])c2c(n1)C(=O)C(=O)c1cc(C(=O)O)[nH]c1-2.[Na+].[Na+] [Comparative Example 9, PQQ·2Na] | 7.56 pmol/min/10^3 cells | – | 117.8% | 17.8%
